Experimental findings from patent publication EP0761672A1, “Cephalosporin containing in position 7 a substituted benzyloxyimino radical, processes for their preparation and intermediates for their preparation, their use as medicaments” (ROUSSEL UCLAF, priority 1995, dated 1997) are described below.

Common to all, as to assay: In vitro activity, dilution method in solid medium (MIC)
Common to all, as to assay type: cell-based

In assay [1] the test system is Pseudomonas aeruginosa. Particulars: Pseudomonas aeruginosa (23 souches); geometric mean of all MICs of the strain group; 24 h incubation at 37°C; read-out: concentrations minimales inhibitrices (CMI), moyennes géométriques. On the procedure:
(§1) Activité in vitro, méthode des dilutions en milieu solide.
(§2) On prépare une série de boîtes dans lesquelles on répartit une même quantité de milieu nutritif stérile, contenant des quantités croissantes du produit à étudier puis chaque boîte est ensemencée avec plusieurs souches bactériennes.
(§3) Après incubation de 24 heures en étuve à 37°C, l'inhibition de la croissance est appréciée par l'absence de tout développement bactérien ce qui permet de déterminer les concentrations minimales inhibitrices (CMI) exprimées en microgrammes/cm^3.
(§4) Les résultats sont exprimés sous forme de moyennes géométriques de toutes les CMI obtenues, pour un groupe de souches particulier.

The test system of assay [2] is Enterobactéries Céfotaxime résistantes. Particulars: 24 h, read-out: concentrations minimales inhibitrices (CMI), moyennes géométriques. How it is done:
as §1, §2, §3, §4

For assay [3], the system named is Staphylocoques Pénicilline résistants. Particulars: Staphylocoques Pénicilline résistants (22 souches); geometric mean of all MICs of the strain group; 24 h incubation at 37°C; read-out: concentrations minimales inhibitrices (CMI), moyennes géométriques. How it is done:
as §1, §2, §3, §4

Molecules are shown by their SMILES. Converted amounts (≈) assume the structure as drawn.

For `Nc1nc(/C(=N/OCc2cc(Cl)c(O)c(O)c2Cl)C(=O)N[C@@H]2C(=O)N3C(C(=O)[O-])=C(/C=C/C[n+]4cccc5c4CCC5)CS[C@H]23)cs1` [Exemple 3], the MIC worked out at 0.26 µg/mL (≈ 0.362 µM) in assay [1], 0.13 µg/mL (≈ 0.181 µM) in assay [2] and 1.37 µg/mL (≈ 1.91 µM) in assay [3].

Take `Nc1nc(/C(=N/OCc2cc(F)c(O)c(O)c2F)C(=O)N[C@@H]2C(=O)N3C(C(=O)[O-])=C(/C=C/C[n+]4ccn5ccccc54)CS[C@H]23)cs1` [Exemple 5]: the MIC in assay [2] was found to be 0.26 µg/mL (≈ 0.38 µM); in assay [3], 0.55 µg/mL (≈ 0.804 µM).

Take `COC(=O)C(O/N=C(\C(=O)N[C@@H]1C(=O)N2C(C(=O)[O-])=C(/C=C/C[n+]3cccc4ccccc43)CS[C@H]12)c1csc(N)n1)c1cc(O)c(O)c(F)c1` (stereo partly drawn) [Exemple 8]: the MIC was 0.49 µg/mL (≈ 0.667 µM) in assay [1] and 0.3 µg/mL (≈ 0.408 µM) in assay [3].

`Nc1nc(/C(=N/OCc2cc(F)c(O)c(O)c2F)C(=O)N[C@@H]2C(=O)N3C(C(=O)[O-])=C(/C=C/C[n+]4cccc5c4CCC5)CS[C@H]23)cs1` [Exemple 6]: the MIC in assay [1] was found to be 1.12 µg/mL (≈ 1.64 µM); in assay [2] it was 0.36 µg/mL (≈ 0.526 µM); in assay [3], 0.63 µg/mL (≈ 0.92 µM).

As to `Nc1nc(/C(=N/OCc2cc(Cl)c(O)c(O)c2Cl)C(=O)N[C@@H]2C(=O)N3C(C(=O)[O-])=C(/C=C/C[n+]4cccc5ccccc54)CS[C@H]23)cs1` [Exemple 1], the results for the MIC in assay [2] and in assay [3] were 0.11 µg/mL (≈ 0.151 µM) and 0.78 µg/mL (≈ 1.07 µM), respectively.

Consider `Nc1nc(/C(=N/OCc2cc(Cl)c(O)c(O)c2Cl)C(=O)N[C@@H]2C(=O)N3C(C(=O)[O-])=C(/C=C/C[n+]4ccn5ccccc54)CS[C@H]23)cs1` [Exemple 2], for which the MIC in assay [1] is 0.42 µg/mL (≈ 0.586 µM); in assay [2], 0.19 µg/mL (≈ 0.265 µM); in assay [3] it was 0.91 µg/mL (≈ 1.27 µM).

Regarding `Nc1nc(/C(=N/OCc2cc(O)c(O)c(F)c2)C(=O)N[C@@H]2C(=O)N3C(C(=O)[O-])=C(/C=C/C[n+]4cccc5ccccc54)CS[C@H]23)cs1` [Exemple 7], the results for the MIC in assay [1], in assay [2] and in assay [3] were 0.47 µg/mL (≈ 0.695 µM), 0.2 µg/mL (≈ 0.296 µM) and 0.3 µg/mL (≈ 0.443 µM), respectively.

Take `Nc1nc(/C(=N/OCc2cc(F)c(O)c(O)c2F)C(=O)N[C@@H]2C(=O)N3C(C(=O)[O-])=C(/C=C/C[n+]4cccc5ccccc54)CS[C@H]23)cs1` [Exemple 4]: the MIC is 0.14 µg/mL (≈ 0.202 µM) in assay [1], 0.38 µg/mL (≈ 0.547 µM) in assay [2] and 0.37 µg/mL (≈ 0.533 µM) in assay [3].
